Results from PubChem BioAssay AID330 (DTP/NCI, 2004).
Values joined by “and” are separate entries in the source; they are usually repeats but may differ in a detail not shown here. Equal entries are not always repeated. Inconclusive results and toxic doses are left out.

System: P388 leukemia ip, CD2F1 mice, survival T/C
Experiment: NCI In Vivo Anticancer Drug Screen. Data for tumor model P388 Leukemia (intraperitoneal) in CD2F1 (CDF1) mice
Conditions: endpoint: median survival time, higher = longer survival
How it was run: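 Mice carrying the transplanted tumor received test compound or vehicle. Survival was recorded in each group, and the value is the treated-group measurement divided by that of the vehicle-treated control group.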

[1] = dose: 60.0 mg/kg/injection, schedule: Q01DX005 (ip), vehicle: saline with Tween-80
[2] = dose: 120.0 mg/kg/injection, schedule: Q01DX005 (ip), vehicle: saline with Tween-80
[3] = dose: 240.0 mg/kg/injection, schedule: Q01DX005 (ip), vehicle: saline with Tween-80

## CS(=O)(=O)N/N=C(\N)Oc1ccc(Cl)cc1Cl
[1]
  T/C: 97 % of control
[2]
  T/C: 93 % of control
[3]
  T/C: 88 % of control

## O=C(CNCCCCNCCCNCC(=O)C(O)C(O)C(O)CO)C(O)C(O)C(O)CO (stereo not drawn)
dose: 30.0 mg/kg/injection, schedule: Q01DX005 (ip), vehicle: saline
  T/C: 104 % of control
dose: 60.0 mg/kg/injection, schedule: Q01DX005 (ip), vehicle: saline
  T/C: 101 % of control

## CC(C)(OC(=O)N=[N+]=[N-])c1ccc(N=Nc2ccccc2)cc1
dose: 50.0 mg/kg/injection, schedule: Q01DX009 (ip), vehicle: saline + alcohol
  T/C: 94 % of control
dose: 100.0 mg/kg/injection, schedule: Q01DX009 (ip), vehicle: saline + alcohol
  T/C: 98 % of control
dose: 200.0 mg/kg/injection, schedule: Q01DX009 (ip), vehicle: saline + alcohol
  T/C: 87 % of control

## COc1cc2c(cc1OC)C13CCC(O)CC1=CC2(C)O3 (stereo not drawn)
dose: 50.0 mg/kg/injection, schedule: Q04DX002 (ip), vehicle: saline with Tween-80
  T/C: 96 % of control
dose: 100.0 mg/kg/injection, schedule: Q04DX002 (ip), vehicle: saline with Tween-80
  T/C: 96 % of control
dose: 200.0 mg/kg/injection, schedule: Q04DX002 (ip), vehicle: saline with Tween-80
  T/C: 89 % of control

## CC1=NN(c2ccccc2)C(=O)/C1=C(\[O-])c1ccccc1.CC1=NN(c2ccccc2)C(=O)/C1=C(\[O-])c1ccccc1.[Co+2]
dose: 15.0 mg/kg/injection, schedule: Q01DX005 (ip), vehicle: saline with Tween-80
  T/C: 100 % of control
dose: 30.0 mg/kg/injection, schedule: Q01DX005 (ip), vehicle: saline with Tween-80
  T/C: 102 % of control
[1]
  T/C: 102 % of control and 109 % of control

## NC(=O)N/N=C/Cn1ccc(=O)n(C/C=N/NC(N)=O)c1=O
dose: 50.0 mg/kg/injection, schedule: Q01DX005 (ip), vehicle: Klucel (hydroxypropylcellulose) (HPC)
  T/C: 91 % of control
dose: 100.0 mg/kg/injection, schedule: Q01DX005 (ip), vehicle: Klucel (hydroxypropylcellulose) (HPC)
  T/C: 87 % of control
dose: 200.0 mg/kg/injection, schedule: Q01DX005 (ip), vehicle: Klucel (hydroxypropylcellulose) (HPC)
  T/C: 87 % of control

## CC1(C)OCC(CO)(Nc2nc(N3CC3)nc(N3CC3)n2)CO1
dose: 0.62 mg/kg/injection, schedule: Q01DX009 (ip), vehicle: saline
  T/C: 120 % of control
dose: 1.25 mg/kg/injection, schedule: Q01DX009 (ip), vehicle: saline
  T/C: 158 % of control and 164 % of control
dose: 2.5 mg/kg/injection, schedule: Q01DX009 (ip), vehicle: saline
  T/C: 199 % of control and 229 % of control
dose: 3.75 mg/kg/injection, schedule: Q01DX009 (ip), vehicle: saline
  T/C: 187 % of control
dose: 5.0 mg/kg/injection, schedule: Q01DX009 (ip), vehicle: saline
  T/C: 89 % of control and 98 % of control

## CS(=O)(=O)OCC(F)(F)COS(C)(=O)=O
dose: 50.0 mg/kg/injection, schedule: Q01DX005 (ip), vehicle: saline with Tween-80
  T/C: 94 % of control
dose: 100.0 mg/kg/injection, schedule: Q01DX005 (ip), vehicle: saline with Tween-80
  T/C: 100 % of control
dose: 200.0 mg/kg/injection, schedule: Q01DX005 (ip), vehicle: saline with Tween-80
  T/C: 99 % of control

## CN(C)c1nnnn1-c1ccccc1
[1]
  T/C: 104 % of control
[2]
  T/C: 107 % of control
[3]
  T/C: 107 % of control

## COc1ccc(Cl)cc1NC(=O)Oc1ccncc1
dose: 0.78 mg/kg/injection, schedule: Q01DX009 (ip), vehicle: saline with Tween-80
  T/C: 94 % of control
dose: 1.56 mg/kg/injection, schedule: Q01DX009 (ip), vehicle: saline with Tween-80
  T/C: 88 % of control
dose: 3.12 mg/kg/injection, schedule: Q01DX009 (ip), vehicle: saline with Tween-80
  T/C: 87 % of control and 88 % of control
dose: 6.25 mg/kg/injection, schedule: Q01DX009 (ip), vehicle: saline with Tween-80
  T/C: 86 % of control
dose: 12.5 mg/kg/injection, schedule: Q01DX009 (ip), vehicle: saline with Tween-80
  T/C: 88 % of control
dose: 50.0 mg/kg/injection, schedule: Q01DX009 (ip), vehicle: saline with Tween-80
  T/C: 87 % of control
dose: 100.0 mg/kg/injection, schedule: Q01DX009 (ip), vehicle: saline with Tween-80
  T/C: 101 % of control
dose: 200.0 mg/kg/injection, schedule: Q01DX009 (ip), vehicle: saline with Tween-80
  T/C: 94 % of control

## CCCCSc1nn(CCC#N)c(=O)[nH]c1=O
dose: 25.0 mg/kg/injection, schedule: Q01DX005 (ip), vehicle: water
  T/C: 98 % of control
dose: 50.0 mg/kg/injection, schedule: Q01DX005 (ip), vehicle: water
  T/C: 100 % of control
dose: 100.0 mg/kg/injection, schedule: Q01DX005 (ip), vehicle: water
  T/C: 103 % of control
dose: 200.0 mg/kg/injection, schedule: Q01DX005 (ip), vehicle: water
  T/C: 100 % of control

## CCOP(=O)(O)C1CCCC(C)[N-]1.CCOP(=O)(O)C1CCCC(C)[N-]1.[Ni+2] (stereo not drawn)
dose: 12.5 mg/kg/injection, schedule: Q04DX003 (ip), vehicle: Klucel (hydroxypropylcellulose) (HPC)
  T/C: 99 % of control
dose: 25.0 mg/kg/injection, schedule: Q04DX003 (ip), vehicle: Klucel (hydroxypropylcellulose) (HPC)
  T/C: 107 % of control
dose: 50.0 mg/kg/injection, schedule: Q04DX003 (ip), vehicle: Klucel (hydroxypropylcellulose) (HPC)
  T/C: 107 % of control
